# Test system: rabbit ventricular myocytes
# Experiment: Intracellular sodium [Na^+]i in ventricular myocytes during PMI, Sodium Green flow cytometry
# Type: cell-based
# Conditions: PMI + ODSH 100 μg/mL; n = 7; PMI alone 11.16 ± 0.90, Hepes 6.04 ± 0.25
# Method: In these studies, intracellular calcium concentration [Ca^++]i was measured by flow cytometry. Measurement of isolated mouse and rabbit ventricular myocyte [Ca^2+]i and [Na^+]i by flow cytometry has been described (Zhang et al., J. Cardiovasc. Pharmacol. 51: 443-449 (2008); Li et al., J. Mol. Cell. Cardiol. 33: 2145-2155 (2001)). [Ca^++]i was measured with the Ca^++ sensitive fluorescent probe, Fluo 3-AM (Molecular Probes, Eugene, Oreg.), using a FACScan (Becton-Dickinson, MA). The cells were exposed to 4 μmol/L Fluo-3 AM for 30 min at 37° C. The cells were then separated into aliquots. After 40 min of wash, the cells were exposed to paced metabolic ischemia (MI) for 45 min at 37° C. Metabolic ischemia was accomplished by incubating cells in a glucose-free MKRBB solution (pH 7.40) containing 2 mmol/L sodium cyanide (NaCN) to impair mitochondrial and glycolytic generation of ATP. […] Approximately 2×10^3 myocytes were analyzed to calculate average emission fluorescence intensity in each sample. […] Only those cells with low fluorescence intensity at 670 nm (PI-negative cells or viable cells) were included in the comparative analysis of [Ca^++]i. The sample [Ca^2+]i values were calculated by Mn^2+ quenching (Sugishita et al, 2001) and [Na^+]i values by comparison with a standard curve of varied [Na^+]i versus Na Green fluorescence. […] Results were expressed as means±SEM. […]
substance,measurement,value
"2-O, 3-O desulfated heparin [ODSH]",[Na^+]i,7.85 ± 0.45 mM

# Reference: US20090238852A1, “METHODS FOR CONTROLLING INTRACELLULAR CALCIUM LEVELS ASSOCIATED WITH AN ISCHEMIC EVENT” (University of Utah Research Foundation, priority 2008, published 2009)
